ChEMBL document CHEMBL5608113, “Targeting of CAF-induced therapy resistance in CRC organoid-stroma co-cultures” (2024)

What was measured:
Type in all cases: functional, Homo sapiens
Conditions in all cases: Homo sapiens, Concentration 10 uM; read-out: Cell Viability
Colon cancer organoid [1] = assay: Targeting of F14 CAF-induced therapy resistance in O14 CRC organoid-stroma co-culture. Cell viability is reported without Gefitinib.
Colon cancer organoid [2] = assay: Targeting of F14 CAF-induced therapy resistance in O23 CRC organoid-stroma co-culture. Cell viability is reported with SN-38.
Colon cancer organoid [3] = assay: Targeting of F14 CAF-induced therapy resistance in O23 CRC organoid-stroma co-culture. Cell viability is reported with Gefitinib.
Colon cancer organoid [4] = assay: Targeting of F14 CAF-induced therapy resistance in O23 CRC organoid-stroma co-culture. Cell viability is reported without Gefitinib.
Colon cancer organoid [5] = assay: Targeting of F14 CAF-induced therapy resistance in O14 CRC organoid-stroma co-culture. Cell viability is reported with Gefitinib.

Structure (SMILES)	viability at 10 µM (Colon cancer organoid [1]) [%]	viability at 10 µM (Colon cancer organoid [2]) [%]	viability at 10 µM (Colon cancer organoid [3]) [%]	viability at 10 µM (Colon cancer organoid [4]) [%]	viability at 10 µM (Colon cancer organoid [5]) [%]
CNc1nc(-c2ccc3c(N)n[nH]c3c2)cc(N2C[C@@H](C(=O)NC3CCCCC3)CC[C@H]2C)n1	57.6	39.8	24.3	44.8	17.9
CCCc1cc(C)[nH]c(=O)c1CNC(=O)c1cc(-c2ccnc(N3CCN(C)CC3)c2)cc2c1cnn2C(C)C	73	94.5	74.3	119	63.9
O=C(c1ccc(C(=O)N2CCC(N3CCCC3)CC2)c(Nc2ccccc2)c1)N1CCC(N2CCCC2)CC1	121	67.2	57.4	122	47.7
COc1cc2c(NC3CCN(C(C)C)CC3)nc(N3CCC(F)(F)CC3)nc2cc1OCCCN1CCCC1	71.2	91.7	62.4	107	56.9
CC(C)N(CCCNC(=O)Nc1ccc(C(C)(C)C)cc1)C[C@H]1O[C@@H](n2cc(Br)c3c(N)ncnc32)[C@H](O)[C@@H]1O	69.6	19.8	34	41.3	45.4
COc1cc2c(cc1OCCCN1CCCC1)N=C(N)C21CCC1	82.9	76.1	55.4	122	46.9
CCCc1cc(C)[nH]c(=O)c1CNC(=O)c1cc(-c2ccc(N3CCN(C(C)C)CC3)nc2)cc2c1cnn2C(C)C	95.6	102	68.8	152	77.8
CC(C)NC(=O)N1CC[C@H](NC2=Nc3cc(F)ccc3N(CC(F)F)c3ccc(Cl)cc32)C1	89.7	42.9	61.4	79	36
Clc1cccc(-c2nnnn2Cc2cccnc2)c1Cl	127	77.1	47.8	106	60.2
CC(C)Oc1ccc(-c2c[nH]cc2CN(C)CCN)cc1	25.7	77	47.4	132	31.6
CNCCN1CCC(OCc2ccccc2)CC1	42.5	69.2	59.5	139	43.9
O=C(NCC(=O)N1CCCC1)Nc1ccc2cnccc2c1	83.8	39	68.5	179	76.1
CCNC(=O)c1cc2c(N3CCOC[C@@H]3C)ccnc2n1C	70.2	84.1	38.3	104	36.3
Nc1ncnc2c1ccn2[C@@H]1O[C@H]([C@H](O)c2ccccc2)[C@@H](O)[C@H]1O	14.9	68.9	45	97.6	14.9
CCN(CC)S(=O)(=O)Nc1cccc(-c2ccc3c(NC(=O)C4CC4)n[nH]c3c2)c1	144	69.2	65.5	120	50.5
CC(C)C(=O)Nc1n[nH]c2cc(-c3cccc(NS(=O)(=O)C4CC4)c3)ccc12	129	62.1	54.8	115	57.8

Structure (SMILES)	viability at 10 µM (Colon cancer organoid [1]) [%]	viability at 10 µM (Colon cancer organoid [2]) [%]	viability at 10 µM (Colon cancer organoid [3]) [%]	viability at 10 µM (Colon cancer organoid [4]) [%]	viability at 10 µM (Colon cancer organoid [5]) [%]
Clc1cc2c(NC3CCCC3)nnc(-c3ccncc3)c2cc1Cl	91.2	114	72.9	142	65.8
O=C(NC[C@H](O)CN1CCc2ccccc2C1)c1ccnc(NC2CCC2)c1	32.6	50.6	43.2	83.1	31.9
CN1CCN(Cc2cc(NC(=O)c3ccc4c(c3)CN(c3ccccc3)CC4)cc(C(F)(F)F)c2)CC1	115	63.3	64.5	112	50.8
Cc1cn(-c2cc(NC(=O)c3ccc4c(c3)CN(c3cncnc3)C[C@@H]4C)cc(C(F)(F)F)c2)cn1	149	57.5	63.8	115	50.6
CN(C)C(=O)/C(C#N)=C/c1ccc(-c2nc3cnc4[nH]ccc4c3n2C2CCCCC2)o1	117	65.2	56.7	96.1	47.2
NC1(c2ccc(-c3nc4ccn5c(=O)[nH]nc5c4cc3-c3ccccc3)cc2)CCC1	53.7	19.5	19.9	24.5	32.7
Cn1cc(-c2ccc3occ(-c4ccccc4-c4ccccc4)c3n2)cn1	115	63.4	89.5	153	75.6
C[C@H]1CC(=O)Nc2cc(C(=O)NCCC3CC3)ccc2N1C(=O)N1CC2CC2C1 (stereo not given in full)	108	160	142	196	59.8
CCN(Cc1ccc(Cl)cc1)c1ncc(C(=O)NCCCN2CCCC2=O)c(NC2CCCC2)n1	108	61.6	74.3	105	46.6
O=C(NCc1ccccc1)c1ccc(S(=O)(=O)NCc2ccccc2)cc1	103	82.9	58.1	97	40.5
CCOC(=O)CCNc1cc(N2CCc3ccccc3CC2)nc(-c2cccnc2)n1	60.1	79.9	90.8	140	57.2
O=C([C@@H](Cc1cccc(C(F)(F)F)c1)NS(=O)(=O)c1cc(F)c2c(c1)CCNC2)N1CCCC1	114	60.3	55.1	81.5	65
CCCCN(Cc1ccccc1)C(=O)c1ccc(S(=O)(=O)Nc2ccccc2)cc1	80.8	63.6	52.2	125	48.8
COc1cc(OC)cc(-c2noc(N3CCN(C)C4(CCN(c5ccnc(C)c5)CC4)C3)n2)c1	103	101	74.2	108	49.2
CN(C)C(=O)/C(C#N)=C/c1ccc(-c2nc3cnc4c(ccn4C)c3n2C2CCCCC2)o1	107	46.5	53.6	83.6	63.9
